Test system: MMP3 expression in the chondrosarcoma cell line SW1353
Experiment: MMP-3 release from SW cells (MMP3 ELISA of cell culture supernatant)
Format: cell-based
Conditions: for MMP-3 release MW (OD 450 nm) / Relative values based on starting value: SW cells; for Relative values based on starting value: IL1α alone = 100
Method: For the analysis of the disease-modifying action of HOE140 in a cell culture model relevant to cartilage, the MMP3 expression was analyzed in the chondrosarcoma cell line SW1353 (ATCC: HTB 94). For the experiments, SW1353 cells were cultured under standard conditions (37° C., 5% CO2) in DMEM-Glutamax with 10% of fetal calf serum (FCS) in plastic culture bottles. After detrypsinization of the cells, 50,000 cells were inoculated per well of a 96-well flat-bottom plate in medium without FCS and preincubated with the compound HOE140 in an incubator. After one hour, the cells were stimulated by addition of human IL1-β (0.1 ng/mL, Roche) in a total volume of 300 μL. After incubation for 24 hours under standard conditions, the cell culture supernatant was taken off, centrifuged for 5 minutes and frozen at −20° C. until further analysis. The MMP3 expression in the cell culture supernatants was then analyzed by means of a commercial MMP3 ELISA test system (Amersham) according to the instructions of the manufacturer. In parallel to this, a WST cytotoxicity test was carried out with the remaining cells. For this the commercial test system of Roche was used and the measurement was carried out according to the instructions of the >manufacturer's protocol. […] Bradykinin increases the MMP3 release by more than 30%.

[1] = IL1α + bradykinin (0.1 μM) + 0.05 μM HOE140
[2] = IL1α + bradykinin (0.1 μM) + 0.1 μM HOE140
[3] = IL1α + bradykinin (0.1 μM) + 0.5 μM HOE140
[4] = IL1α + bradykinin (0.1 μM) + 1 μM HOE140

With “D-arginyl-L-arginyl-L-prolyl-L-prolylglycyl-3-(2-thienyl)-L-alanyl-L-seryl-(3R)-1,2,3,4-tetrahydro-3-isoquinolinecarbonyl-(2S,3aS,7aS)-octahydro-1H-indole-2-carbonyl-L-arginine [HOE140]” the “inhibition of the bradykinin-increased release of MMP3 (in words)” value (SW1353 cells, IL1 + bradykinin) was “inhibited by HOE140 in a dose-dependent manner”, the “MMP-3 release MW (OD 450 nm)” value [1] was 458 OD 450 nm and the “Relative values based on starting value” [1] was 139.6. For the same substance, the “MMP-3 release MW (OD 450 nm)” value [2] was 371 OD 450 nm, the “Relative values based on starting value” [2] was 113.1 and the “MMP-3 release MW (OD 450 nm)” value [3] was 309 OD 450 nm. The “Relative values based on starting value” [3] was 94.2, the “MMP-3 release MW (OD 450 nm)” value [4] was 306 OD 450 nm and the Relative values based on starting value [4] was 93.3.

From patent US20040248809A1, “Use of antagonists of the bradykinin B2 receptor for the treatment of osteoarthrosis” (Aventis Pharma Deutschland GmbH, priority 2003, published 2004)
